According to US10800741B2 (ANCUREALL PHARMACEUTICAL (SHANGHAI) CO., LTD., priority 2017, dated 2020):

What was measured:
Type in all cases: cell-based, Human
Kasumi-1 (KIT N822K) = assay: In vitro growth inhibition of Kasumi-1 tumor cells (MTT/CCK8); settings: Homo sapiens, Kasumi 1; in vitro growth inhibition (or induction of apoptosis), cells cultured 3 to 5 days, MTT (CCK8); read-out: IC50 Kasumi-1 (KIT N822K)
KATO III (FGFR2 amp) = assay: In vitro growth inhibition of KATO III tumor cells (MTT/CCK8); settings: Homo sapiens, KATO III; in vitro growth inhibition (or induction of apoptosis), cells cultured 3 to 5 days, MTT (CCK8); read-out: IC50 KATO III (FGFR2 amp)
H1703 (PDGFRa amp) = assay: In vitro growth inhibition of H1703 tumor cells (MTT/CCK8); settings: Homo sapiens, NCI-H1703; in vitro growth inhibition (or induction of apoptosis), cells cultured 3 to 5 days, MTT (CCK8); read-out: IC50 H1703 (PDGFRa amp)
H1581 (FGFR1 amp) = assay: In vitro growth inhibition of H1581 tumor cells (MTT/CCK8); settings: Homo sapiens, NCI-H1581; in vitro growth inhibition (or induction of apoptosis), cells cultured 3 to 5 days, MTT (CCK8); read-out: IC50 H1581 (FGFR1 amp)
Hep3B2 (FGFR3/4+++) = assay: In vitro growth inhibition of Hep3B2 tumor cells (MTT/CCK8); settings: Homo sapiens, Hep3B; in vitro growth inhibition (or induction of apoptosis), cells cultured 3 to 5 days, MTT (CCK8); read-out: IC50 Hep3B2 (FGFR3/4+++)
MOLM-13 (FLT3-ITD) = assay: In vitro growth inhibition of MOLM-13 tumor cells (MTT/CCK8); settings: Homo sapiens, MOLM-13; in vitro growth inhibition (or induction of apoptosis), cells cultured 3 to 5 days, MTT (CCK8); read-out: IC50 MOLM-13 (FLT3-ITD)
KCL-22 (BCR-ABL) = assay: In vitro growth inhibition of KCL-22 tumor cells (MTT/CCK8); settings: Homo sapiens, KCL-22; in vitro growth inhibition (or induction of apoptosis), cells cultured 3 to 5 days, MTT (CCK8); read-out: IC50 KCL-22 (BCR-ABL)
Karpas 299 (NPM-ALK) = assay: In vitro growth inhibition of Karpas 299 tumor cells (MTT/CCK8); settings: Homo sapiens, KARPAS-299; in vitro growth inhibition (or induction of apoptosis), cells cultured 3 to 5 days, MTT (CCK8); read-out: IC50 Karpas 299 (NPM-ALK)

Structure (SMILES)	IC50 (Kasumi-1 (KIT N822K)) [nM]	IC50 (KATO III (FGFR2 amp)) [nM]	IC50 (H1703 (PDGFRa amp)) [nM]	IC50 (H1581 (FGFR1 amp)) [nM]	IC50 (Hep3B2 (FGFR3/4+++)) [nM]	IC50 (MOLM-13 (FLT3-ITD)) [nM]	IC50 (KCL-22 (BCR-ABL)) [nM]	IC50 (Karpas 299 (NPM-ALK)) [nM]
CNC(=O)c1cc2c(Oc3ccc(NC(=O)Nc4cc(C(C)(C)C)n[nH]4)c(Cl)c3)ccnc2cc1OC [Compound 45, 4-{4-[3-(5-tert-butyl-2H-pyrazol-3-yl)-ureido]-3-chloro-phenoxy}-7-methoxyquinolin-6-carboxylic acid methylamide]	34.2	1.46	25.7	16.5	39.6	6.32	21.8	413
CNC(=O)c1cc2c(Oc3ccc(NC(=O)Nc4cc(C(C)(C)C)nn4C4CCCC4)c(Cl)c3)ccnc2cc1OC [Compound 48, 4-{4-[3-(5-tert-butyl-2-cyclopentyl-2H-pyrazol-3-yl)-ureido]-3-chloro-phenoxy}-7-methoxyquinolin-6-carboxylic acid methylamide]	35.7	1.36	25.9	11.7	44.1	11.6	22.3	502
CNC(=O)c1cc2c(Oc3ccc(NC(=O)Nc4cc(C(C)(C)C)n[nH]4)c(C)c3)ccnc2cc1OC [Compound 49, 4-{4-[3-(5-tert-butyl-2H-pyrazol-3-yl)-ureido]-3-methyl-phenoxy}-7-methoxyquinolin-6-carboxylate acid methylamide]	100	2.93	15.4	63.1	93.1	18.1	31.2	> 1000
CNC(=O)c1cc2c(Oc3ccc(NC(=O)Nc4cc(C(C)(C)C)nn4C)c(C)c3)ccnc2cc1OC [Compound 50, 4-{4-[3-(5-tert-butyl-2-methyl-2H-pyrazol-3-yl)-ureido]-3-methyl-phenoxy}-7-methoxy quinolin-6-carboxylate acid methylamide]	65.6	0.31	14.5	59.5	96.6	16.2	90	795
CNC(=O)c1cc2c(Oc3ccc(NC(=O)Nc4cc(C(C)(C)C)nn4C)cc3C)ccnc2cc1OC [Compound 53, 4-{4-[3-(5-tert-butyl-2-methyl-2H-pyrazol-3-yl)-ureido]-2-methyl-phenoxy}-7-methoxy quinolin-6-carboxylate acid methylamide]	17.7	6.81	64	218	344	1.12	28.6	302

Stronger by IC50 (Kasumi-1 (KIT N822K)), values ahead:

IC50 (Kasumi-1 (KIT N822K)) [nM]	IC50 (KATO III (FGFR2 amp)) [nM]	IC50 (H1703 (PDGFRa amp)) [nM]	IC50 (H1581 (FGFR1 amp)) [nM]	IC50 (Hep3B2 (FGFR3/4+++)) [nM]	IC50 (MOLM-13 (FLT3-ITD)) [nM]	IC50 (KCL-22 (BCR-ABL)) [nM]	IC50 (Karpas 299 (NPM-ALK)) [nM]	Structure (SMILES)
15.9	0.73	14.7	4.93	39.3	7.42	9.38	466	CCn1nc(C(C)(C)C)cc1NC(=O)Nc1ccc(Oc2ccnc3cc(OC)c(C(=O)NC)cc23)cc1Cl [Compound 47]
14.4	0.98	8.8	3.06	39.1	6.98	8.17	384	CNC(=O)c1cc2c(Oc3ccc(NC(=O)Nc4cc(C(C)(C)C)nn4C)c(Cl)c3)ccnc2cc1OC [Compound 46, 4-{4-[3-(5-tert-butyl-2-methyl-2H-pyrazol-3-yl)-ureido]-3-chloro-phenoxy}-7-methoxy quinolin-6-carboxylic acid methylamide]
12.7	1.14	48.4	51.4	88	142	13	493	CNC(=O)c1cc2c(Oc3ccc(NC(=O)Nc4cc(C(C)(C)C)n[nH]4)c(C(F)(F)F)c3)ccnc2cc1OC [Compound 51, 4-{4-[3-(5-tert-butyl-2H-pyrazol-3-yl)-ureido]-3-trifluoromethyl-phenoxy}-7-methoxyquinolin-6-carboxylic acid methylamide]
